Measured values: US20130309768A1, “METHOD FOR CULTURING HUMAN PLURIPOTENT STEM CELLS” (NATIONAL INSTITUTE OF BIOMEDICAL INNOVATION, priority 2011, published 2013)
No end group written: not given here. *: point of attachment. Myristoyl = CCCCCCCCCCCCCC(=O)*

Assays:
human ES cells = conditions: cited from earlier work
[1] = system: human iPS cell line Tic (JCRB1331); assay: Culture with protein kinase C peptide inhibitor, alkaline phosphatase staining; assay type: cell-based; conditions: fourth day, FIG. 9
Procedure: Media comprising the activin-containing supplement+hESF-grow medium or the activin-free supplement+hESF-grow medium with fibronectin coating described in Example 3 and 0, 1, 2.5, 5, or 10 μM each of myristoylated protein kinase C peptide inhibitor (Myr. […]) (from Promega Corporation) added thereto were prepared, and used as first media containing a protein kinase C inhibitor and second media containing a protein kinase C inhibitor.
Human iPS cell line Tic (JCRB1331) was dispersed in the first medium containing a protein kinase C inhibitor and culturing was started. 60 hours after starting the culturing of the cell line Tic, a medium change into the second medium containing a protein kinase C inhibitor was conducted. Twice of medium changes were further conducted every 24 hours. On the fourth day after starting the culturing, the cells were fixed with 4.5 mM citric acid, 2.25 mM sodium citrate, 3 mM sodium chloride, 65% methanol and 4% paraformaldehyde for five minutes. Alkaline phosphatase staining was conducted with FastRed substrate kit (from Sigma Chemical Co.) according to the guidance of the manufacturer.

[2] = system: ERK (extracellular signal-regulated kinases); conditions: addition of activin; cited from earlier work
[3] = system: human ES cell line KhES-1; assay: Cell adhesion to ECM-coated microplates (crystal violet, absorbance 595 nm); assay type: cell-based; conditions: coating 0.01-10 μg/cm^2, hESF9 medium, two days culture; FIG. 1(a)
Procedure: (§1) The inventors studied on the substitution of ECMs such as collagen I, gelatin, laminin, fibronectin, and the like, which are recently used as a cell support in place of feeder cells, from animal-derived materials to animal product-free ingredients. Studies were conducted with human ES cell line KhES-1 (Laboratory of embryonic stem Cell research Center, Institute for Frontier Medical Sciences, Kyoto University), and human iPS cell line Tic (JCRB1331) (JSCB cell bank, National Institute of Biomedical Innovation); and the embryonal cancer cell line PA-1 (JCRB9061) (JSCB cell bank, National institute of Biomedical Innovation) was used as a comparative example.
(§2) Using 96 well microplates (from Corning Incorporated), each of collagen I (from Nitta Gelatin Inc.), gelatin (from Sigma Chemical Co.), laminin (from Sigma Chemical Co.), and fibronectin (from Sigma Chemical Co.) was treated at 37° C. for 3 hours, with avoiding being dried, to coat the microplates with each at 0.01, 0.05, 0.1, 0.5, 1, 5 and 10 μg/cm^2. The aforementioned hESF9 medium was added, and then human ES cell line KhES-1 and human iPS cell line Tic (JCRB1331), and embryonal cancer cell line PA-1 (JCRB9061) were seeded at […], after counting their cell numbers. After culturing the cells for two days (or culturing the embryonal cancer cell line PA-1 (JCRB9061) for one hour), the cells were fixed and nuclei of adhered cells were stained with 0.4% crystal violet (from Sigma Chemical Co.) dissolved in methanol for 30 minutes. The microplates were washed and then dried. The cells were lysed with 0.1 M sodium citrate dissolved in 50% methanol, and absorbance at 595 nm was measured with a microplate reader (model 550, from Bio-Rad Laboratories, Inc.).

[4] = system: human iPS cell line Tic (JCRB1331); assay: as above; assay type: cell-based; conditions: coating 0.01-10 μg/cm^2, hESF9 medium, two days culture; FIG. 1(b)
Procedure: as §1, §2

[5] = system: embryonal cancer cell line PA-1 (JCRB9061); assay: Cell adhesion to ECM-coated microplates (comparative example); assay type: cell-based; conditions: hESF9 medium, one hour culture; FIG. 1(c)
Procedure: as §1, §2
Embryonal cancer cell line PA-1 (JCRB9061) was studied on the adhesion ability to the various ECNs described above.

cell line H9 (WA09) = assay: Culture with fibronectin added to the medium, cell appearance; assay type: cell-based, human; conditions: 0, 20, 40, 80, 160, 320 μg/well tested; 9.6 cm^2 well, 3 mL medium; FIG. 8
Procedure: (§3) In a 6 well plate (from Becton, Dickinson and Company), first media containing fibronectin were prepared by adding 10 μg/mL recombinant human insulin, 5 μg/mL recombinant human transferrin (apo), 10 μM 2-mercaptoethanol, 10 μM 2-ethanolamine, 20 nM sodium selenite, 9.4 μg/mL oleic acid complexed with 1 mg/mL recombinant human albumin, and 2 ng/mL recombinant human activin to the hESF-grow medium, and further adding 0, 20, 40, 80, 160, or 320 μg/well of bovine fibronectin to each well.
as §3, with “second” for “first”, “adding” for “adding 10 μg/mL recombinant human insulin,”, “selenate and” for “selenite,”, “albumin” for “human albumin, and 2 ng/mL recombinant human activin”
The cell line H9 (WA09) was cultured similarly to the culturing on fibronectin coating described above, except that the first medium and the second medium described in the above section on fibronectin coating were replaced with the first media containing fibronectin and the second media containing fibronectin, and cells were cultured at varying concentrations of fibronectin in respective wells. The area of 1 well in the used plate was 9.6 cm^2, and 3 mL each of the medium was added.

murine ES cells = conditions: serum-free medium; cited from earlier work
pluripotent stem cells = assay: Cytokeratin expression of cells cultured on laminin; assay type: cell-based, human

## O=S(=O)(O)CCN1CCN(CCO)CC1 [HEPES]
Human ES cells; added into serum-free medium
  effect on the maintenance of human ES cells: very adverse effect

## Myr. RFARKGALRQKNV (Myristoyl-RFARKGALRQKNV)
[1]; 1 to 2.5 μM in medium
  proliferation: increase in proliferation
[1]; 1 to 5 μM in medium
  suppression of differentiation compared to no inhibitor: further suppression of differentiation

## activin
Human ES cells; addition of activin
  differentiation induction into the nerve or mesendoderm: promotes differentiation induction
[2]
  ERK activation: activates ERK

## collagen
[3]
  adhesion ability: weak adhesion ability
[4]
  adhesion ability: weak adhesion ability
[5]
  adhesion ability: strongest adhesion ability
  coating concentration at which adhesion ability was strongest: about 10 μg/cm^2

## fibronectin
[3]
  adhesion ability: strongest adhesion ability
[4]
  adhesion ability: strongest adhesion ability
Cell line H9 (WA09)
  amount of fibronectin at which the undifferentiated state was best maintained: 80 μg/well
Murine ES cells
  effect on undifferentiated state / differentiation: act to promote the differentiation

## gelatin
[3]
  adhesion ability: weak adhesion ability
[4]
  adhesion ability: weak adhesion ability
[5]
  adhesion ability: strongest adhesion ability
  coating concentration at which adhesion ability was strongest: about 10 μg/cm^2

## heparin
Human ES cells; added in the absence of FGF-2
  proliferation of ES cells: promotes the proliferation

## laminin
[3]
  adhesion ability: strongest adhesion ability
[4]
  adhesion ability: strongest adhesion ability
Pluripotent stem cells
  cytokeratin expression: express cytokeratin strongly
Murine ES cells
  effect on undifferentiated state / differentiation: act to promote the differentiation
